Reference: PubChem BioAssay (NCI)
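Test compounds were applied to cells in 96-well plates for 48 hours at 5 doses. The concentration for full growth arrest is given as TGI.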

What was measured:
Assay in all cases: DTP human tumour cell line panel, 48 h
786-0 renal = test system: 786-0 renal
A549 NSCLC = test system: A549 NSCLC
ACHN renal = test system: ACHN renal
BT-549 breast = test system: BT-549 breast
CAKI-1 renal = test system: CAKI-1 renal
CCRF-CEM leukemia = test system: CCRF-CEM leukemia
COLO 205 colon = test system: COLO 205 colon
DU-145 prostate = test system: DU-145 prostate
EKVX NSCLC = test system: EKVX NSCLC
HCC-2998 colon = test system: HCC-2998 colon
HCT-15 colon = test system: HCT-15 colon
HOP-62 NSCLC = test system: HOP-62 NSCLC
HOP-92 NSCLC = test system: HOP-92 NSCLC
HS 578T breast = test system: HS 578T breast
HT29 colon = test system: HT29 colon
IGROV1 ovarian = test system: IGROV1 ovarian
K-562 leukemia = test system: K-562 leukemia
KM12 colon = test system: KM12 colon
LOX IMVI melanoma = test system: LOX IMVI melanoma
MALME-3M melanoma = test system: MALME-3M melanoma
MCF7 breast = test system: MCF7 breast
MDA-MB-231 breast = test system: MDA-MB-231 breast
MDA-MB-435 = test system: MDA-MB-435
MDA-N = test system: MDA-N
MOLT-4 leukemia = test system: MOLT-4 leukemia
NCI-H226 lung = test system: NCI-H226 lung
NCI-H23 lung = test system: NCI-H23 lung
NCI-H460 lung = test system: NCI-H460 lung
NCI-H522 lung = test system: NCI-H522 lung
NCI/ADR-RES ovarian = test system: NCI/ADR-RES ovarian
OVCAR-3 ovarian = test system: OVCAR-3 ovarian
OVCAR-4 ovarian = test system: OVCAR-4 ovarian
OVCAR-5 ovarian = test system: OVCAR-5 ovarian
OVCAR-8 ovarian = test system: OVCAR-8 ovarian
PC-3 prostate = test system: PC-3 prostate
RXF 393 renal = test system: RXF 393 renal
SF-268 CNS = test system: SF-268 CNS
SF-295 CNS = test system: SF-295 CNS
SF-539 CNS = test system: SF-539 CNS
SK-MEL-2 melanoma = test system: SK-MEL-2 melanoma
SK-MEL-28 melanoma = test system: SK-MEL-28 melanoma
SK-MEL-5 melanoma = test system: SK-MEL-5 melanoma
SK-OV-3 ovarian = test system: SK-OV-3 ovarian
SN12C renal = test system: SN12C renal
SNB-19 CNS = test system: SNB-19 CNS
SNB-75 CNS = test system: SNB-75 CNS
SW-620 colon = test system: SW-620 colon
T-47D breast = test system: T-47D breast
TK-10 renal = test system: TK-10 renal
U251 CNS = test system: U251 CNS
UACC-257 melanoma = test system: UACC-257 melanoma
UACC-62 melanoma = test system: UACC-62 melanoma
UO-31 renal = test system: UO-31 renal
HCT-116 colon = test system: HCT-116 colon
HL-60(TB) leukemia = test system: HL-60(TB) leukemia
M14 melanoma = test system: M14 melanoma
RPMI-8226 leukemia = test system: RPMI-8226 leukemia
SR leukemia = test system: SR leukemia

## OCC1c2ccccc2-n2nc(-c3ccccc3)c(O)c21 (stereo not drawn)
786-0 renal
  TGI: 32.1 µM
A549 NSCLC
  TGI: > 100 µM
ACHN renal
  TGI: 30.6 µM
BT-549 breast
  TGI: 85.1 µM
CAKI-1 renal
  TGI: 31.7 µM
CCRF-CEM leukemia
  TGI: > 100 µM
COLO 205 colon
  TGI: 26.5 µM
DU-145 prostate
  TGI: > 100 µM
EKVX NSCLC
  TGI: > 100 µM
HCC-2998 colon
  TGI: 44.8 µM
HCT-15 colon
  TGI: 29.2 µM
HOP-62 NSCLC
  TGI: > 100 µM
HOP-92 NSCLC
  TGI: 35 µM
HS 578T breast
  TGI: > 100 µM
HT29 colon
  TGI: 76.4 µM
IGROV1 ovarian
  TGI: > 100 µM
K-562 leukemia
  TGI: 53 µM
KM12 colon
  TGI: 46.1 µM
LOX IMVI melanoma
  TGI: 47 µM
MALME-3M melanoma
  TGI: 33.3 µM
MCF7 breast
  TGI: 36.7 µM
MDA-MB-231 breast
  TGI: > 100 µM
MDA-MB-435
  TGI: 92.2 µM
MDA-N
  TGI: > 100 µM
MOLT-4 leukemia
  TGI: > 100 µM
NCI-H226 lung
  TGI: > 100 µM
NCI-H23 lung
  TGI: > 100 µM
NCI-H460 lung
  TGI: 77.2 µM
NCI-H522 lung
  TGI: 48.7 µM
NCI/ADR-RES ovarian
  TGI: 51.1 µM
OVCAR-3 ovarian
  TGI: 79.2 µM
OVCAR-4 ovarian
  TGI: > 100 µM
OVCAR-5 ovarian
  TGI: > 100 µM
OVCAR-8 ovarian
  TGI: 37.6 µM
PC-3 prostate
  TGI: 34.3 µM
RXF 393 renal
  TGI: 31.9 µM
SF-268 CNS
  TGI: > 100 µM
SF-295 CNS
  TGI: > 100 µM
SF-539 CNS
  TGI: > 100 µM
SK-MEL-2 melanoma
  TGI: 43.9 µM
SK-MEL-28 melanoma
  TGI: > 100 µM
SK-MEL-5 melanoma
  TGI: > 100 µM
SK-OV-3 ovarian
  TGI: > 100 µM
SN12C renal
  TGI: 36.8 µM
SNB-19 CNS
  TGI: > 100 µM
SNB-75 CNS
  TGI: > 100 µM
SW-620 colon
  TGI: 67.3 µM
T-47D breast
  TGI: > 100 µM
TK-10 renal
  TGI: 34.1 µM
U251 CNS
  TGI: 52.8 µM
UACC-257 melanoma
  TGI: > 100 µM
UACC-62 melanoma
  TGI: 67.7 µM
UO-31 renal
  TGI: 92.4 µM

## O=C1CCc2cc3c(cc21)C(C(=O)O)CC3 (stereo not drawn)
786-0 renal
  TGI: > 100 µM
A549 NSCLC
  TGI: > 100 µM
ACHN renal
  TGI: > 100 µM
BT-549 breast
  TGI: > 100 µM
CAKI-1 renal
  TGI: > 100 µM
CCRF-CEM leukemia
  TGI: > 100 µM
COLO 205 colon
  TGI: > 100 µM
DU-145 prostate
  TGI: > 100 µM
EKVX NSCLC
  TGI: > 100 µM
HCC-2998 colon
  TGI: > 100 µM
HCT-116 colon
  TGI: > 100 µM
HCT-15 colon
  TGI: > 100 µM
HL-60(TB) leukemia
  TGI: > 100 µM
HOP-62 NSCLC
  TGI: > 100 µM
HS 578T breast
  TGI: > 100 µM
HT29 colon
  TGI: > 100 µM
IGROV1 ovarian
  TGI: > 100 µM
K-562 leukemia
  TGI: > 100 µM
KM12 colon
  TGI: > 100 µM
LOX IMVI melanoma
  TGI: > 100 µM
M14 melanoma
  TGI: > 100 µM
MALME-3M melanoma
  TGI: > 100 µM
MCF7 breast
  TGI: > 100 µM
MDA-MB-231 breast
  TGI: > 100 µM
MDA-N
  TGI: > 100 µM
MOLT-4 leukemia
  TGI: > 100 µM
NCI-H226 lung
  TGI: > 100 µM
NCI-H23 lung
  TGI: > 100 µM
NCI-H460 lung
  TGI: > 100 µM
NCI-H522 lung
  TGI: > 100 µM
NCI/ADR-RES ovarian
  TGI: > 100 µM
OVCAR-4 ovarian
  TGI: > 100 µM
OVCAR-5 ovarian
  TGI: > 100 µM
OVCAR-8 ovarian
  TGI: > 100 µM
PC-3 prostate
  TGI: > 100 µM
RPMI-8226 leukemia
  TGI: > 100 µM
RXF 393 renal
  TGI: > 100 µM
SF-268 CNS
  TGI: > 100 µM
SF-295 CNS
  TGI: > 100 µM
SF-539 CNS
  TGI: > 100 µM
SK-MEL-2 melanoma
  TGI: > 100 µM
SK-MEL-28 melanoma
  TGI: > 100 µM
SK-MEL-5 melanoma
  TGI: > 100 µM
SK-OV-3 ovarian
  TGI: > 100 µM
SN12C renal
  TGI: > 100 µM
SNB-19 CNS
  TGI: > 100 µM
SNB-75 CNS
  TGI: > 100 µM
SR leukemia
  TGI: > 100 µM
SW-620 colon
  TGI: > 100 µM
T-47D breast
  TGI: > 100 µM
TK-10 renal
  TGI: > 100 µM
U251 CNS
  TGI: > 100 µM
UACC-257 melanoma
  TGI: > 100 µM
UACC-62 melanoma
  TGI: > 100 µM
UO-31 renal
  TGI: > 100 µM
